Data reported in US7517888B2, “A1 adenosine receptor antagonists” (CV Therapeutics, Inc., priority 2004, dated 2009).
pKi: −log10 of the molar value. Where two headings read alike, the source gives them in different places.

How the values were obtained:
Human-A2A (HEK-A2A) = target: T1, Human-A2A (HEK-A2A) (Homo sapiens, UniProt P29274); assay: Radioligand binding, human A2A AdoR, HEK-A2A membranes
T1 construct: expressed in transfected cells; host or cells: HEK-293 cells, stably transfected (HEK-A2A)
Description: (§1) The cDNAs for human A1, A2A, A2B or A3 AdoRs were prepared by RT-PCR from total RNA of human cells or tissues and sequenced on both strands. The expression vector containing each of these cDNAs and a second vector containing a neomycin or puromycin-resistance gene were introduced to HEK-293 or CHO cells by Lipofectin-Plus (Life Technology). Colonies were selected by growing transfected cells in the presence of neomycin or puromycin. Stably transfected cells were maintained in Dulbecco's modified Eagle's medium (DMEM) or F-12 medium with 10% fetal bovine serum, 100 μg/ml penicillin, 100 μg/ml streptomycin and appropriate concentrations of neomycin or puromycin. These stably transfected cells were referred to as HEK-“AdoR” or CHO-“AdoR” depending on the receptors that they express. The cell lines used routinely were CHO-A1, HEK-A2A, HEK-A2B.and CHO-A3 cells. In addition, hamster DDT1 MF-2 cells that express endogenous A1 AdoRs were also used to determine the binding activities of compounds for A1 AdoRs.
(§2) Monolayers of transfected cells or DDT1 MF-2 were washed with phosphate buffered saline (PBS) and harvested in a buffer containing 10 mM HEPES (pH 7.4), 10 mM EDTA and protease inhibitors. The cells were homogenized in polytron for 1 minute at setting 4 and centrifuged at 29000 g for 15 minutes at 4° C. The cell pellets were washed with a buffer containing 10 mM HEPES (pH7.4), 1 mM EDTA and protease inhibitors, and were resuspended in the same buffer supplemented with 10% sucrose. Frozen aliquots were kept at −80° C.
(§3) The affinities of compounds for A1, A2A, A2B or A3 AdoRs were determined in competition studies using radioligands such as ^3H—CPX (A1 antagonist), or ^3H—CCPA (A1 agonist), ^3H-ZM241385 (A2A antagonist) or ^3H-CGS21680 (A2A agonist), ^3H-ZM241385 (A2B antagonist) or ^125I-AB-MECA (A3 agonist) and membranes of corresponding cells. […] The assays were incubated for 60-90 minutes, stopped by filtration onto GF/B filter plates using Packard Harvester and washed four times with ice-cold TM buffer (10 mM Tris, 1 mM MgCl2, pH 7.4). The amounts of radioligands that bound to the GF/B filter plates were determined by scintillation counting. Nonspecific binding were determined in the presence of 1-10 μM of cold ligands. Bmax and KD values were calculated using GraphPad software.

Hamster-A1 (DDT1 MF-2) = target: T2, Hamster-A1 (DDT1 MF-2) (Mesocricetus auratus, UniProt A0A1U8BVR4); assay: Radioligand binding, hamster A1 AdoR, DDT1 MF-2 membranes
T2 sequence (A0A1U8BVR4 1-326): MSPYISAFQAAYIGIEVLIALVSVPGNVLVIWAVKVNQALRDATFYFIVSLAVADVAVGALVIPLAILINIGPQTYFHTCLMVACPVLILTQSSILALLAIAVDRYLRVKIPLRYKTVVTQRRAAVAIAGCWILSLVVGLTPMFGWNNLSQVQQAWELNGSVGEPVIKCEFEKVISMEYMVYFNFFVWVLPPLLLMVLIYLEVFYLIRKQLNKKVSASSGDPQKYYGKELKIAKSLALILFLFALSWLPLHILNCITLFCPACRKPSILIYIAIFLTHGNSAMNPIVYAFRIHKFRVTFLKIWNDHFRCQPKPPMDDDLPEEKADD
Description: as §1, §2, §3

Human-A1 (CHO-A1) = target: T3, Human-A1 (CHO-A1) (Homo sapiens, UniProt P30542); assay: Radioligand binding, human A1 AdoR, CHO-A1 membranes
T3 construct: expressed in transfected cells; host or cells: CHO cells, stably transfected (CHO-A1)
T3 sequence (P30542 1-326): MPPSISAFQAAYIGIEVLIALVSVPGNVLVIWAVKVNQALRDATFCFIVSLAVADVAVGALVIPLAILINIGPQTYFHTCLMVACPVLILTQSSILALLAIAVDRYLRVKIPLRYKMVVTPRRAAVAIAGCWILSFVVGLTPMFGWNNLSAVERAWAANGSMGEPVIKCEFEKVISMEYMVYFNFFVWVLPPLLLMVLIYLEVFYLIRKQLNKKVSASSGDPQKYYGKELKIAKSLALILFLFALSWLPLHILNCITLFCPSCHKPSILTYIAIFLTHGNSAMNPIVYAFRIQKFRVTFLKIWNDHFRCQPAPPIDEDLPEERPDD
Description: as §1, §2, §3

Human-A2B (HEK-A2B) = target: T4, Human-A2B (HEK-A2B) (Homo sapiens, UniProt P29275); assay: Radioligand binding, human A2B AdoR, HEK-A2B membranes
T4 construct: expressed in transfected cells; host or cells: HEK-293 cells, stably transfected (HEK-A2B)
T4 sequence (P29275 1-332): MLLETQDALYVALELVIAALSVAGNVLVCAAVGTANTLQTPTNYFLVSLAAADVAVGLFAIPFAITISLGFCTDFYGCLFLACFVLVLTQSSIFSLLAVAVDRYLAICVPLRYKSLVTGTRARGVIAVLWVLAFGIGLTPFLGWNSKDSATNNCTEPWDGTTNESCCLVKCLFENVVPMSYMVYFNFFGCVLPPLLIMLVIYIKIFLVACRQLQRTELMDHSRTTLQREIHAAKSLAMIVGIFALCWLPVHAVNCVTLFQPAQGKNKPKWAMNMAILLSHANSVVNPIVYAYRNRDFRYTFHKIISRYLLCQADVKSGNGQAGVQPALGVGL
Description: as §1, §2
[…] The amounts of radioligands that bound to the GF/B filter plates were determined by scintillation counting. Nonspecific binding were determined in the presence of 1-10 μM of cold ligands. Bmax and KD values were calculated using GraphPad software.

[1] = 3H-ZM241385 radioligand, HEK-A2A membranes, read-out: Ki (low) Human-A2A HEK-A2A
[2] = 3H-CPX radioligand, DDT1 MF-2 membranes, read-out: Ki (low) Hamster-A1 DDT1 MF-2
[3] = 3H-CPX radioligand, CHO-A1 membranes, read-out: Ki (low) Human-A1 CHO-A1
[4] = 3H-CGS21680 radioligand (footnote c), HEK-A2B membranes, read-out: Ki (low) Human-A2B HEK-A2B

T1 sequence (P29274 whole entry): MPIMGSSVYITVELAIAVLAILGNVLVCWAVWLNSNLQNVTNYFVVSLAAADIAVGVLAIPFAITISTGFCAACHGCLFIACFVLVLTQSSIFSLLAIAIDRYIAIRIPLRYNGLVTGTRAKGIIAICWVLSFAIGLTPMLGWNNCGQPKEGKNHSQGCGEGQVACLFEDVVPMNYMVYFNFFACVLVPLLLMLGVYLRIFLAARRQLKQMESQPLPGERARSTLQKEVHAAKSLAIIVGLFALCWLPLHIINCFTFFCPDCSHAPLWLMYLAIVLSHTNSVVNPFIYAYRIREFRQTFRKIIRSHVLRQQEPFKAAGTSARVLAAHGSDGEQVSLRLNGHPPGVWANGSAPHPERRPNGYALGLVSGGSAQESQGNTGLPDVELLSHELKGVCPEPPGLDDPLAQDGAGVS

Row | pKi (Human-A2A (HEK-A2A); [1]) | pKi (Hamster-A1 (DDT1 MF-2); [2]) | pKi (Human-A1 (CHO-A1); [3]) | pKi (Human-A2B (HEK-A2B); [4]) | Compound | pKi (Human-A2A (HEK-A2A)) | pKi (Hamster-A1 (DDT1 MF-2)) | pKi (Human-A1 (CHO-A1)) | pKi (Human-A2B (HEK-A2B))
1 | < 5.30 | 7.08 | 6.74 | < 5.18 | Cn1c(-c2cccnc2)nc2c(NC3CCCC3)ncnc21 [cyclopentyl(9-methyl-8-(3-pyridyl)purin-6-yl)amine] |  |  |  | 
2 | < 5.30 | 7.70 | 7.38 | < 5.18 | Cc1ccccc1-c1nc2c(NC3CCCC3)ncnc2n1C [cyclopentyl[9-methyl-8-(2-methylphenyl)purin-6-yl]amine] |  |  |  | 
3 | < 5.30 | 9.00 | 8.70 | < 5.18 | Cn1c(-c2ccccc2)nc2c(NC3CCCCC3)ncnc21 [cyclohexyl(9-methyl-8-phenylpurin-6-yl)amine] |  |  |  | 
4 | < 5.30 | 7.96 | 7.60 | < 5.18 | CCCn1c(-c2ccccc2)nc2c(NC3CCCCC3)ncnc21 [cyclohexyl(8-phenyl-9-propylpurin-6-yl)amine] |  |  |  | 
5 | < 5.30 | 8.52 | 8.30 | < 5.18 | Cn1c(-c2cccc(Cl)c2)nc2c(NC3CCCC3)ncnc21 [[8-(3-chlorophenyl)-9-methylpurin-6-yl]cyclopentylamine] |  |  |  | 
6 | < 5.30 | 9.00 | 8.30 | < 5.18 | Cn1c(-c2ccc(F)cc2)nc2c(NC3CCCC3)ncnc21 [cyclopentyl[8-(4-fluorophenyl)-9-methylpurin-6-yl]amine] |  |  |  | 
7 |  |  |  |  | Cn1c(-c2ccc(O)cc2)nc2c(NC3CCCC3)ncnc21 [4-[6-(cyclopentylamino)-9-methylpurin-8-yl]phenol] | < 5.30 | 8.40 | 8.05 | < 5.18
8 | < 5.30 | 8.40 | 7.96 | < 5.18 | CCn1c(-c2ccccc2)nc2c(NC3CCCCC3)ncnc21 [cyclohexyl(9-ethyl-8-phenylpurin-6-yl)amine] |  |  |  | 
9 | < 5.30 | 8.00 | 8.05 | < 5.18 | Cn1c(-c2ccc(Cl)cc2)nc2c(NC3CCCC3)ncnc21 [[8-(4-chlorophenyl)-9-methylpurin-6-yl]cyclopentylamine] |  |  |  | 
10 | < 5.30 | 8.52 | 8.30 | < 5.18 | Cc1ccc(-c2nc3c(NC4CCCC4)ncnc3n2C)cc1 [cyclopentyl[9-methyl-8-(4-methylphenyl)purin-6-yl]amine] |  |  |  | 
11 | < 5.30 | 7.66 | 7.49 | < 5.18 | COc1ccc(-c2nc3c(NC4CCCC4)ncnc3n2C)cc1 [cyclopentyl[8-(4-methoxyphenyl)-9-methylpurin-6-yl]amine] |  |  |  | 
12 | < 5.30 | 8.70 | 8.30 | < 5.18 | Cc1cccc(-c2nc3c(NC4CCCC4)ncnc3n2C)c1 [cyclopentyl[9-methyl-8-(3-methylphenyl)purin-6-yl]amine] |  |  |  | 
